Here are results for 50 substances from US20250213707A1, “COMPOUND FOR INCREASING EFFICACY OF ONCOLYTIC VIRUSES” (ABLEVIA BIOTECH GMBH, priority 2022, published 2025).

One test concerns mAb ADK8. Nature of the test: Epitope mapping of mAb ADK8 against AAV peptides. The format is binding, mice. From the text: Monoclonal antibody ADK8 was generated by immunizing mice with AAV8 capsids. It is directed against the assembled AAV8 capsid (Sonntag et al, 2011). […] Moreover, the binding of AAV8 to the nuclear membrane as well as the nuclear entry were abrogated following neutralization by ADK8. […] ADK8 also cross-reacts with capsid proteins from other AAV serotypes such as AAV1, AAV3, AAV7 (Mietzsch et al, 2014) and was therefore chosen as an example from which general conclusions about the present invention can be drawn.
As for the other antibodies (see examples above), several clusters were identified, delineating regions from which preferred peptides can be deduced. Most preferably, the peptides aligned below according to their binding strengths can be used for selective antibody depletion and detection as hereinabove.

For test [1], the system named is IgG from human donors (anti-AAV antibodies). Nature of the test: Screen for anti-AAV antibodies in human sera based on cyclic 14-amino-acid AAV peptides on microarrays (Table 2). The test is classed as binding. More on the design: key: X: the deduplicated aggregate of the respective top 50 peptide hits for each donor was compiled and designated as group I. Conditions: human donor IgG; circularized AAV peptides; top 50 peptide hits for each donor. As to the method: More than 1200 cyclic peptides derived from the sequences of human and rhesus monkey AAV sequences and artificial AAV sequences according to Table 2 and with a sequence length of 14 amino-acids each were synthesized.
Samples obtained from human donors were screened for antibodies against these AAV-derived peptides immobilized on microarrays. To this end, IgG was prepared from blood obtained from the human donors by protein G purification. Each IgG sample was incubated with the peptide microarrays and Ig binding signals were detected by fluorescence. All antibody binding signals to the peptides on the arrays were background subtracted and ranked for each sample and a deduplicated aggregate of the respective top 250 peptide hits for each donor with the corresponding protein sequence of origin (as obtained from UniProt or other sources) was compiled (designated as group II). Further, the deduplicated aggregate of the respective top 50 peptide hits for each donor was compiled and designated as group I.
Altogether, group I contains 47 distinct peptide hits (assigned to the corresponding AAV vectors in Table 2) and group II yielded 172 distinct peptide hits. Evidently, group I is a subset of group II.

Another test relates to mAb 9C12. Nature of the test: Epitope mapping of monoclonal antibody 9C12 against cyclic peptides of the AdV hexon protein (peptide microarray). The test is classed as binding, mice. Particulars: cyclic 7mer, 10mer, 13mer peptides of AdV hexon. As to the method: Monoclonal antibody 9C12 (alias mAB TC31-9C12·C9-s) was generated by immunizing mice with the hexon protein (Uniprot ID: P04133 which corresponds to GenBank: BAG48782.1). […] In brief, diluted antibody was incubated with GFP-expressing replication-defective Ad vector and subsequently added to Hela cells followed by fluorescence readout. […] The binding signal of mAb 9C12 to the peptides yielded several candidates that could be aligned and clustered against the protein. An epitopic cluster region of 20 amino acids was identified from which paratope binding peptides can be preferentially derived. Below are the aligments of the corresponding peptide hits from this screen. […] Cyclic peptides were selected out of up to 50 top binders in this experiment.

Test [2] deals with IgG from human donors (anti-AAV antibodies). Briefly: Screen for anti-AAV antibodies in human sera, 2452 linear 15-amino-acid AAV peptides on microarrays (Table 1). The format is binding. On the set-up: key to group I: X: the deduplicated aggregate of the respective top 10 peptide hits for each donor was compiled and designated as group I; key to group II: X: the deduplicated aggregate of the respective top 25 peptide hits for each donor was compiled and designated as group II; key to group III: X: the deduplicated aggregate of the respective top 50 peptide hits for each donor was compiled and designated as group III. Particulars: human donor IgG binding to linear 15-amino-acid AAV peptides on microarray, fluorescence; for group I: membership in deduplicated aggregate of top 10 peptide hits for each donor; for group II: membership in deduplicated aggregate of top 25 peptide hits for each donor; for group III: membership in deduplicated aggregate of top 50 peptide hits for each donor. The procedure, abridged: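 Peptide hits were grouped I to IV by pooling each donor's top 10, 25, 50 or 250 background-corrected fluorescence signals, after deduplication. Signals came from donor IgG, purified on protein G, bound to arrayed 15-residue linear peptides (2452 total) spanning 16 AAV sequences.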

For 313 (VYLQGPI) [compound 313], the “peptide number according to binding strength” value (“peptide number according” below) with mAb ADK8 stood at 02.

As to 315 (DVYLQGP) [compound 315], the “peptide number according” value with mAb ADK8 amounted to 05.

In the case of 317 (LQGPIWA) [compound 317], the “peptide number according” value in the test on mAb ADK8 was 12.

Turning to 318 (RDVYLQG) [compound 318], the “peptide number according” value in the test on mAb ADK8 amounted to 20.

Turning to 321 (FGYSTPWGYF) [compound 321], the “peptide number according” value with mAb ADK8 came out at 09.

With 322 (GYSTPWGYFD) [compound 322], the “peptide number according” value in the test on mAb ADK8 is 10.

Take 323 (YSTPWGYFDF) [compound 323]: in the test with mAb ADK8, the “peptide number according” value stood at 11.

On to 325 (TPWGYFDFNRFHC) [compound 325], for which, in the test with mAb ADK8, the “peptide number according” value amounted to 18.

Consider 328 (YFGYSTPWGY) [compound 328], for which the “peptide number according” value in the test on mAb ADK8 was found to be 28.

Consider 329 (FGYSTPWGYFDFN) [compound 329], for which the “peptide number according” value with mAb ADK8 is given as 34.

Turning to 330 (NWLPGPC) [compound 330], the “peptide number according” value in the test on mAb ADK8 came out at 04.

As to 331 (WLPGPCY) [compound 331], the “peptide number according” value with mAb ADK8 turned out to be 15.

In the case of 336 (GCLPPFP) [compound 336], the “peptide number according” value with mAb ADK8 worked out at 13.

Regarding 337 (VLGSAHQGCLPPF) [compound 337], in the test on mAb ADK8, the “peptide number according” value was 27.

Take 338 (LPYVLGSAHQGCL) [compound 338]: the “peptide number according” value in the test on mAb ADK8 is reported as 32.

Consider 339 (YVLGSAHQGC) [compound 339], for which the “peptide number according” value in the test with mAb ADK8 worked out at 37.

340 (CLPPFPA) [compound 340]: the “peptide number according” value in the test with mAb ADK8 is 38.

For the substance 341 (SAHQGCLPPF) [compound 341], the “peptide number according” value in the test on mAb ADK8 is reported as 39.

For the substance 342 (VLGSAHQGCL) [compound 342], the “peptide number according” value in the test with mAb ADK8 was 45.

For 343 (PYVLGSAHQGCLP) [compound 343], in the test with mAb ADK8, the “peptide number according” value turned out to be 46.

For 344 (GRSSFYC) [compound 344], in the test with mAb ADK8, the “peptide number according” value is on record as 14.

Regarding 345 (AVGRSSFYCLEYF) [compound 345], the “peptide number according” value in the test with mAb ADK8 worked out at 22.

On to 346 (AVGRSSFYCL) [compound 346], for which the “peptide number according” value with mAb ADK8 was found to be 24.

For the substance 347 (QAVGRSSFYCLEY) [compound 347], the “peptide number according” value with mAb ADK8 is reported as 33.

For 348 (NGSQAVGRSSFYC) [compound 348], the “peptide number according” value in the test on mAb ADK8 amounted to 35.

In the case of 349 (DQYLYYL) [compound 349], in the test on mAb ADK8, the “peptide number according” value is 19.

Consider 350 (PLIDQYLYYL) [compound 350], for which the “peptide number according” value in the test with mAb ADK8 is given as 29.

351 (IDQYLYY) [compound 351]: the “peptide number according” value in the test on mAb ADK8 is on record as 36.

On to “1917 (HYFGYSTPWGYFDF; REGION 1..14: note = peptide derived from viral capsid protein) [compound 1917]”, for which the “group I” value in test [1] is on record as “X”.

Consider “1918 (APGKKRPVDQSPQE; REGION 1..14: note = peptide derived from viral capsid protein) [compound 1918]”, for which the “group I” value in test [1] is “X”.

For the substance “1919 (GKKRPVDQSPQEPD; REGION 1..14: note = peptide derived from viral capsid protein) [compound 1919]”, in test [1], the “group I” value was “X”.

As for “1920 (KTAPGKKRPVDQSP; REGION 1..14: note = peptide derived from viral capsid protein) [compound 1920]”, the “group I” value in test [1] is on record as “X”.

With “1921 (PEIQYTSNYNKSVN; REGION 1..14: note = peptide derived from viral capsid protein) [compound 1921]”, in test [1], the “group I” value is given as “X”.

“1922 (SESVPDPQPLGEPP; REGION 1..14: note = peptide derived from viral capsid protein) [compound 1922]”: in test [1], the “group I” value is “X”.

On to “1923 (TAPGKKRPVDQSPQ; REGION 1..14: note = peptide derived from viral capsid protein) [compound 1923]”, for which the “group I” value in test [1] is “X”.

Consider “1924 (YDQQLKAGDNPYLK; REGION 1..14: note = peptide derived from viral capsid protein) [compound 1924]”, for which the “group I” value in test [1] is “X”.

Regarding “1926 (DKAYDRQLDSGDNP; REGION 1..14: note = peptide derived from viral capsid protein) [compound 1926]”, the “group I” value in test [1] was “X”.

Turning to “1927 (GTNTMATGSGAPMA; REGION 1..14: note = peptide derived from viral capsid protein) [compound 1927]”, in test [1], the “group I” value is “X”.

“1928 (DKAYDQQLQAGDNP; REGION 1..14: note = peptide derived from viral capsid protein) [compound 1928]”: the “group I” value in test [1] is on record as “X”.

“1929 (TESVPDPQPIGEPP; REGION 1..14: note = peptide derived from viral capsid protein) [compound 1929]”: the “group I” value in test [1] is listed as “X”.

Take “1932 (DEEEIKATNPVATE; REGION 1..14: note = peptide derived from viral capsid protein) [compound 1932]”: in test [1], the “group I” value is given as “X”.

For “1933 (DKDKFFPMSGVMIF; REGION 1..14: note = peptide derived from viral capsid protein) [compound 1933]”, in test [1], the “group I” value is reported as “X”.

Consider “1934 (LQQQNTAPQIGTVN; REGION 1..14: note = peptide derived from viral capsid protein) [compound 1934]”, for which, in test [1], the “group I” value is “X”.

For the substance “1935 (EEEIKTTNPVATEE; REGION 1..14: note = peptide derived from viral capsid protein) [compound 1935]”, in test [1], the “group I” value is listed as “X”.

With “1937 (DDEDKFFPMSGVMI; REGION 1..14: note = peptide derived from viral capsid protein) [compound 1937]”, in test [1], the “group I” value is on record as “X”.

In the case of “1938 (PLVDQYLYRFVSTN; REGION 1..14: note = peptide derived from viral capsid protein) [compound 1938]”, the “group I” value in test [1] is “X”.

On to “DAEFQERLKEDTSF (REGION 1..14: note = peptide derived from viral capsid protein) [SEQ ID NO: 1975]”, for which the “ranked binding signal obtained from the microarray (01 binds strongest)” value (shortened to “ranked binding signal obtained”) with mAb 9C12 was 08. Also, in test [2], the “group I” value is listed as “X”, the “group II” value is reported as “X” and the “group III” value is “X”.

With DDEEKFFPMHGNLI [SEQ ID NO: 1976], in the test on mAb 9C12, the “ranked binding signal obtained” value is 09. Besides, in test [2], the “group I” value was “X”, the “group II” value was “X” and the “group III” value is reported as “X”.

On to “DGHFHPSPLMGGFG (REGION 1..14: note = peptide derived from viral capsid protein) [SEQ ID NO: 1977]”, for which the “ranked binding signal obtained” value in the test with mAb 9C12 is recorded as 10. Moreover, in test [2], the “group I” value was “X”, the “group II” value is on record as “X” and the “group III” value was “X”.

In the case of “DSESVPDPQPLGEP (REGION 1..14: note = peptide derived from viral capsid protein) [SEQ ID NO: 1978]”, the “ranked binding signal obtained” value with mAb 9C12 is recorded as 11. In addition, in test [2], the “group I” value is listed as “X”, the “group II” value is “X” and the “group III” value is “X”.
